Like-named read-outs stand apart in the source and are kept apart here.
Assays:
[1] = test system: Penicillium funiculosum; experiment: Minimum inhibitory concentration against fungi, agar incorporation test, strain M; type: cell-based; settings: malt extract/agar
Description: (§1) The invention is carried out using the known agar incorporation test in the following fungi:
(M) Penicillium funiculosum
(§2) in a malt extract/agar (Merck). Inhibition is effected by adding sufficient of each of the various compounds to give final concentrations in the agar of 2, 5, 10, 50 and 100 mg/liter. The concentrations (mg/liters) required to inhibit the growth of the fungi (starting from traces of fungi added dropwise) are illustrated in Table 3.

[2] = test system: Alternaria alternata; experiment: Minimum inhibitory concentration against fungi, agar incorporation test, strain N; type: cell-based; settings: malt extract/agar
Description: as §1, §2

[3] = test system: Bacillus subtilis; experiment: Minimum inhibitory concentration against bacteria, strain F; type: cell-based; settings: 24 hours at 30° C.; tested at 100 and 300 mg/liter
Description: (§3) Overnight cultures, grown in Caso peptone bouillon (Merck) of the various strains of bacteria: (A) Proteus vulgaris, (B) Pseudomonas aeruginosa, (C) Enterobacter aerogenes, (D) Serratia marcencens, (E) Alcaligenes denitrificans and (F) Bacillus subtilis are each diluted in a ratio of 1/1000 in saline solution. Sufficient of the suspensions is put into Caso peptone bouillon to dilute the bacteria again in the ratio of 1/1000. Each of the compounds listed in Table 1 is then added in amounts of 100 and 300 mg/liter. After being incubated for 24 hours at 30° C. in a shaking waterbath, the turbidity of the samples is evaluated.

[4] = test system: Enterobacter aerogenes; experiment: Minimum inhibitory concentration against bacteria, strain C; type: cell-based; settings: 24 hours at 30° C.; tested at 100 and 300 mg/liter
Description: as §3

[5] = test system: Aspergillus phoenicis; experiment: Minimum inhibitory concentration against fungi, agar incorporation test, strain L; type: cell-based; settings: malt extract/agar
Description: as §1
(L) Aspergillus phoenicis
as §2

[6] = test system: Endomyces geotrichum; experiment: Minimum inhibitory concentration against fungi, agar incorporation test, strain Q; type: cell-based; settings: malt extract/agar
Description: as §1, §2

[7] = test system: Candida albicans; experiment: Minimum inhibitory concentration against fungi, agar incorporation test, strain P; type: cell-based; settings: malt extract/agar
Description: as §1, §2

[8] = test system: Alcaligenes denitrificans; experiment: Minimum inhibitory concentration against bacteria, strain E; type: cell-based; settings: 24 hours at 30° C.; tested at 100 and 300 mg/liter
Description: as §3

[9] = test system: Serratia marcencens; experiment: Minimum inhibitory concentration against bacteria, strain D; type: cell-based; settings: 24 hours at 30° C.; tested at 100 and 300 mg/liter
Description: as §3

[10] = test system: mixed culture of bacteria; type: cell-based; design: key: +: growth, no destruction; (+): growth less than that of control (>10 colonies), slight destruction; (-): slight growth (1-10 colonies); -: no growth, destruction
[11] = test system: Aspergillus niger; experiment: Minimum inhibitory concentration against fungi, agar incorporation test, strain K; type: cell-based; settings: malt extract/agar
Description: as §1, §2

[12] = test system: Pseudomonas aeruginosa; experiment: Minimum inhibitory concentration against bacteria, strain B; type: cell-based; settings: 24 hours at 30° C.; tested at 100 and 300 mg/liter
Description: as §3

[13] = test system: Aureobasidium pullulans; experiment: Minimum inhibitory concentration against fungi, agar incorporation test, strain R; type: cell-based; settings: malt extract/agar
Description: as §1
(R) Aureobasidium pullulans
as §2

[14] = test system: Chlorella vulgaris; experiment: Action against algae: Chlorella vulgaris; type: cell-based; design: key: --: no growth on the agar, 3 ppm have destroyed the algae in 6 hours; settings: 3 mg/liter; for Growth on the agar (algae-destroying action): 6 hours exposure, 14 days incubation; for Growth in the medium (growth inhibition): 14 days
Description: Cultures of Chlorella vulgaris which had been grown for 14 days in algae nutrient media are diluted in the ratio 1/200 in the algae nutrient medium. Each of the compounds listed in Table 1 is then added in such an amount as to give a final concentration of 3 mg/liter. After incubating for 6 hours, 10 μl of each culture are withdrawn and added dropwise to algae/agar in order to determine the destructive action. After the cultures have incubated for 14 days under illumination (14 hours of light and 10 hours of darkness, alternately), the growth in the algae medium (determination of growth inhibition) and on the algae/agar (determination of algae-destroying action) is assessed visually.

[15] = test system: Artemia salina; experiment: Action against Artemia salina nauplii; type: in vivo; design: key: 0: no change; 1: slight change; 1-2: animals are attacked; 2: animals are strongly attacked; 2-3: animals are nearly all dead; 3: animals are all dead
Description: The eggs, which are available commercially, are caused to hatch by vigorous aeration. When 2-3 days old, the nauplii are exposed to the products at various concentrations (concentrations tested: 2.5; 1; 0.5 and 0.25 mg/liter) in synthetic seawater, and are observed over a prolonged period of time.

[16] = test system: Chaetomium globosum; experiment: Minimum inhibitory concentration against fungi, agar incorporation test, strain S; type: cell-based; settings: malt extract/agar
Description: as §1, §2

[17] = test system: Proteus vulgaris; experiment: Minimum inhibitory concentration against bacteria, strain A; type: cell-based; settings: 24 hours at 30° C.; tested at 100 and 300 mg/liter
Description: as §3

[18] = test system: Cladosporium cladosporioides; experiment: Minimum inhibitory concentration against fungi, agar incorporation test, strain O; type: cell-based; settings: malt extract/agar
Description: as §1
(O) Cladosporium cladosporioides
as §2

Compound: CCCCCCCCCCCCCC[N+](CCO)(CCO)Cc1ccccc1.CCC[CH2][Sn-]([Cl])([Cl])([CH2]CCC)[CH2]CCC [Example 24, Di-hydroxyethyl-benzyl-tetradecyl / Tributyldichloro]
- MIC against fungi, strain M [1]: 5 µg/mL
- MIC against fungi, strain N [2]: 5 µg/mL
- MIC against bacteria, strain F [3]: 100 µg/mL
- MIC against bacteria, strain C [4]: 100 µg/mL
- MIC against fungi, strain L [5]: 5 µg/mL
- MIC against fungi, strain Q [6]: 5 µg/mL
- MIC against fungi, strain P [7]: 5 µg/mL
- MIC against bacteria, strain E [8]: 100 µg/mL
- MIC against bacteria, strain D [9]: 100 µg/mL
- Growth (destruction of a mixed culture of bacteria) ([10]; 5 mg/l, culture diluted 1/1000 in Tyrode): +
- Growth (destruction of a mixed culture of bacteria) ([10]; 5 mg/l, culture diluted 1/10000 in Tyrode): +
- Growth (destruction of a mixed culture of bacteria) ([10]; 10 mg/l, culture diluted 1/1000 in Tyrode): +
- Growth (destruction of a mixed culture of bacteria) ([10]; 10 mg/l, culture diluted 1/10000 in Tyrode): +
- Growth (destruction of a mixed culture of bacteria) ([10]; 30 mg/l, culture diluted 1/1000 in Tyrode): +
- Growth (destruction of a mixed culture of bacteria) ([10]; 30 mg/l, culture diluted 1/10000 in Tyrode): +
- Growth (destruction of a mixed culture of bacteria) ([10]; 60 mg/l, culture diluted 1/1000 in Tyrode): +
- Growth (destruction of a mixed culture of bacteria) ([10]; 60 mg/l, culture diluted 1/10000 in Tyrode): (+) (growth less than that of control (>10 colonies), slight destruction)
- Growth (destruction of a mixed culture of bacteria) ([10]; 100 mg/l, culture diluted 1/1000 in Tyrode): +
- Growth (destruction of a mixed culture of bacteria) ([10]; 100 mg/l, culture diluted 1/10000 in Tyrode): -
- MIC against fungi, strain K [11]: 5 µg/mL
- MIC against bacteria, strain B [12]: 100 µg/mL
- MIC against fungi, strain R [13]: 2 µg/mL
- Growth on the agar (algae-destroying action) [14]: --
- Growth in the medium (growth inhibition) [14]: --
- Action against Artemia salina ([15]; 0,5 mg/l, 6 hours): 1-2
- Action against Artemia salina ([15]; 0,5 mg/l, 24 hours): 2-3
- Action against Artemia salina ([15]; 0,5 mg/l, 48 hours): 3
- Action against Artemia salina ([15]; 0,25 mg/l, 6 hours): 0-1
- Action against Artemia salina ([15]; 0,25 mg/l, 24 hours): 2
- Action against Artemia salina ([15]; 0,25 mg/l, 48 hours): 2-3
- Action against Artemia salina ([15]; 1 mg/l, 6 hours): 2
- Action against Artemia salina ([15]; 1 mg/l, 24 hours): 3
- Action against Artemia salina ([15]; 1 mg/l, 48 hours): 3
- Action against Artemia salina ([15]; 2,5 mg/l, 6 hours): 2-3
- Action against Artemia salina ([15]; 2,5 mg/l, 24 hours): 3
- Action against Artemia salina ([15]; 2,5 mg/l, 48 hours): 3
- MIC against fungi, strain S [16]: 2 µg/mL
- MIC against bacteria, strain A [17]: 100 µg/mL
- MIC against fungi, strain O [18]: 2 µg/mL

Compound: C14 H29 (CH3)2NCH2CHOHCH2 OH / Tributyldichloro [Example 21]
- MIC against fungi, strain M [1]: ≤ 5 µg/mL
- MIC against fungi, strain N [2]: ≤ 5 µg/mL
- MIC against bacteria, strain F [3]: 100 µg/mL
- MIC against bacteria, strain C [4]: 100 µg/mL
- MIC against fungi, strain L [5]: ≤ 5 µg/mL
- MIC against fungi, strain Q [6]: ≤ 5 µg/mL
- MIC against fungi, strain P [7]: ≤ 5 µg/mL
- MIC against bacteria, strain E [8]: 100 µg/mL
- MIC against bacteria, strain D [9]: 100 µg/mL
- MIC against fungi, strain K [11]: ≤ 5 µg/mL
- MIC against bacteria, strain B [12]: 100 µg/mL
- MIC against fungi, strain R [13]: ≤ 5 µg/mL
- Growth on the agar (algae-destroying action) [14]: --
- Growth in the medium (growth inhibition) [14]: --
- MIC against fungi, strain S [16]: ≤ 5 µg/mL
- MIC against bacteria, strain A [17]: 100 µg/mL
- MIC against fungi, strain O [18]: ≤ 5 µg/mL

— patent publication US4578489A (priority 1982, dated 1986)
